Values of other authors as cited in patent publication US20180168149A1, “INSECTICIDAL COMPOSITIONS” (HOMS, LLC, priority 2015, published 2018).

Test system: male rats

For `C=C(C)[C@H]1CC=C(C)CC1` [d-limonene], the “tumors on chronic exposure” value is given as “significant incidence of renal tubular tumors”.
